Test results as given in ChEMBL document CHEMBL1153330, “Biochemical basis for differences in metabolism-dependent genotoxicity by two diazinylpiperazine-based 5-HT2C receptor agonists” (Bioorg Med Chem Lett, 2009).

Experiments:
[1] = Metabolic stability in human liver microsomes; type: ADME, Microsome
[2] = Metabolic stability in human liver microsomes in presence of CYP3A4 inhibitor ketoconazole; type: ADME, Microsome; conditions: with ketoconazole (CYP3A4 inhibitor), concentration not stated
[3] = Metabolic stability in aroclor 1254-induced rat liver S9 fraction at 1 uM in presence of NADPH; type: ADME, subcellular
[4] = Metabolic stability in human liver microsomes in presence of CYP1A2 inhibitor furafylline; type: ADME, Microsome; conditions: with furafylline (CYP1A2 inhibitor), concentration not stated
Salmonella typhimurium [5] = experiment: Toxic mutagenic effect in Salmonella Typhimurium TA100 assessed as increase in reverse mutants at 0.63 mg/plate segment in presence of liver S9 fraction and NADPH by reverse mutation assay relative to untreated control; type: toxicity, organism-based; conditions: salmonella enterica subsp. enterica serovar typhimurium
Salmonella typhimurium [6] = experiment: Toxic mutagenic effect in Salmonella Typhimurium TA1537 assessed as increase in reverse mutants at 0.63 mg/plate segment in presence of liver S9 fraction and NADPH by reverse mutation assay relative to untreated control; type: toxicity, organism-based; conditions: salmonella enterica subsp. enterica serovar typhimurium
Cytochrome P450 3A4 = Cytochrome P450 3A4 (Homo sapiens, UniProt P08684); experiment: Inhibition of CYP3A4 in human liver microsomes; type: ADME, Microsome
Salmonella typhimurium [7] = experiment: Toxic mutagenic effect in Salmonella Typhimurium TA1535 assessed as increase in reverse mutants at 5 mg/plate segment after 72 hrs at 37 degC by reverse mutation assay relative to untreated control; type: toxicity, organism-based; conditions: salmonella enterica subsp. enterica serovar typhimurium
Salmonella typhimurium [8] = experiment: Toxic mutagenic effect in Salmonella Typhimurium TA100 assessed as increase in reverse mutants at 5 mg/plate segment after 72 hrs at 37 degC by reverse mutation assay relative to untreated control; type: toxicity, organism-based; conditions: salmonella enterica subsp. enterica serovar typhimurium
Salmonella typhimurium [9] = experiment: Toxic mutagenic effect in Salmonella Typhimurium TA1535 assessed as increase in reverse mutants at 5 mg/plate segment after 72 hrs at 37 degC in presence of aroclor 1254-induced rat liver S9 fraction by reverse mutation assay relative to untreated control; type: toxicity, organism-based; conditions: salmonella enterica subsp. enterica serovar typhimurium, s9, 72 h
Salmonella typhimurium [10] = experiment: Toxic mutagenic effect in Salmonella Typhimurium TA98 assessed as increase in reverse mutants at 5 mg/plate segment after 72 hrs at 37 degC by reverse mutation assay relative to untreated control; type: toxicity, organism-based; conditions: salmonella enterica subsp. enterica serovar typhimurium
Salmonella typhimurium [11] = experiment: Toxic mutagenic effect in Salmonella Typhimurium TA1537 assessed as increase in reverse mutants at 5 mg/plate segment after 72 hrs at 37 degC by reverse mutation assay relative to untreated control; type: toxicity, organism-based; conditions: salmonella enterica subsp. enterica serovar typhimurium
Salmonella typhimurium [12] = experiment: Toxic mutagenic effect in Salmonella Typhimurium TA98 assessed as increase in reverse mutants at 5 mg/plate segment after 72 hrs at 37 degC in presence of aroclor 1254-induced rat liver S9 fraction by reverse mutation assay relative to untreated control; type: toxicity, organism-based; conditions: salmonella enterica subsp. enterica serovar typhimurium, s9, 72 h
Cytochrome P450 1A2 = molecular target: T1, Cytochrome P450 1A2 (Homo sapiens, UniProt P05177); experiment: Inhibition of CYP1A2 in human liver microsomes; type: ADME, Microsome
T1 sequence (P05177 whole entry): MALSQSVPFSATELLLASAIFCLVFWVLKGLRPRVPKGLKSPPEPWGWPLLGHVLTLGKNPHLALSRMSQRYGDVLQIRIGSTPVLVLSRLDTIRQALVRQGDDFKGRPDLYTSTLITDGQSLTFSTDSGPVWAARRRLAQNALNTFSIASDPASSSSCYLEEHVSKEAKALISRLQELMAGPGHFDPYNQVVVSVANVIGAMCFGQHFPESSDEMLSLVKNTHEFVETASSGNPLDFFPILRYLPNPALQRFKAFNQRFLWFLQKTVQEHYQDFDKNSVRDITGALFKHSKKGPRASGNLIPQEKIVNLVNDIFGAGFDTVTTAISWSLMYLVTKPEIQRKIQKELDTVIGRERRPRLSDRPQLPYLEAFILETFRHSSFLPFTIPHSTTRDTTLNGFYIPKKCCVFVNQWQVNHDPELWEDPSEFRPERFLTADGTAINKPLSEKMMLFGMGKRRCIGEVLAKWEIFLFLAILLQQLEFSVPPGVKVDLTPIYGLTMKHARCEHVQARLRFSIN

Salmonella typhimurium [13] = experiment: Toxic mutagenic effect in Salmonella Typhimurium TA1537 assessed as increase in reverse mutants at 5 mg/plate segment after 72 hrs at 37 degC in presence of aroclor 1254-induced rat liver S9 fraction by reverse mutation assay relative to untreated control; type: toxicity, organism-based; conditions: salmonella enterica subsp. enterica serovar typhimurium, s9, 72 h

Cytochrome P450 3A4, sequence (P08684 whole entry): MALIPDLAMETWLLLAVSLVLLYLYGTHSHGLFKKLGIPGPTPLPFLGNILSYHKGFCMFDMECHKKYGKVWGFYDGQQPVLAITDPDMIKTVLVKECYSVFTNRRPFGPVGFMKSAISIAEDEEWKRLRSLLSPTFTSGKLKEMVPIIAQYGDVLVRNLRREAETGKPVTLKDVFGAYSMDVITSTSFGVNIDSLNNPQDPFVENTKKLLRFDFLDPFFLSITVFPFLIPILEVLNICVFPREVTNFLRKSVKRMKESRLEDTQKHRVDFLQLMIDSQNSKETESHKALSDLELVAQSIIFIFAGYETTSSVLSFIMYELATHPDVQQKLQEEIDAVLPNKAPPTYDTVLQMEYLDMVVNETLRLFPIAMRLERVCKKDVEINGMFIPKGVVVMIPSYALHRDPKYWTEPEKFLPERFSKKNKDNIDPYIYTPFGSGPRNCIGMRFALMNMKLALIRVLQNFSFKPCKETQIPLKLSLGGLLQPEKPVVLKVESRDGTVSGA

SMILES | half-life [1] [min] | half-life [2] [min] | half-life at 1 µM [3] [min] | half-life [4] [min] | fold change (FC) (Salmonella typhimurium [5]) | fold change (FC) (Salmonella typhimurium [6]) | IC50 (Cytochrome P450 3A4) [µM] | Activity (Salmonella typhimurium [7]) | fold change (FC) (Salmonella typhimurium [8]) | Activity (Salmonella typhimurium [9]) | Activity (Salmonella typhimurium [10]) | Activity (Salmonella typhimurium [11]) | Activity (Salmonella typhimurium [12]) | IC50 (Cytochrome P450 1A2) [µM] | Activity (Salmonella typhimurium [13])
Clc1cccc(COc2cncc(N3CCNCC3)n2)c1 | 8 | > 90 | 4 | 40 | 3 | 3 | > 50 |  |  |  |  |  |  |  | 
C[C@H](Cc1cccc(F)c1)Oc1nc(N2CCNC[C@H]2C)ncc1F | 20 | > 90 | 13 | 40 |  |  | 4.9 | Non-toxic | 1.34 | Non-toxic | Non-toxic | Non-toxic | Non-toxic | 0.4 | Non-toxic
